# Reference: patent publication US9150577B2, “Heterocyclic compounds containing an indole core” (Boehringer Ingelheim International GmbH, priority 2009, dated 2015)
# Molecular target: Human RSK2 (Homo sapiens (Human), UniProt P51812)
# Test: Human RSK2 assay (Kinase Glo Plus, residual ATP);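 further: recombinant human RSK2 phosphorylating a substrate peptide, 90 min at 28 °C, leftover ATP read by luminescence, RLU scaled between no-kinase background and uninhibited kinase controls, 4-parameter fit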
# Assay type: biochemical
# Chain of Human RSK2 (P51812 whole entry): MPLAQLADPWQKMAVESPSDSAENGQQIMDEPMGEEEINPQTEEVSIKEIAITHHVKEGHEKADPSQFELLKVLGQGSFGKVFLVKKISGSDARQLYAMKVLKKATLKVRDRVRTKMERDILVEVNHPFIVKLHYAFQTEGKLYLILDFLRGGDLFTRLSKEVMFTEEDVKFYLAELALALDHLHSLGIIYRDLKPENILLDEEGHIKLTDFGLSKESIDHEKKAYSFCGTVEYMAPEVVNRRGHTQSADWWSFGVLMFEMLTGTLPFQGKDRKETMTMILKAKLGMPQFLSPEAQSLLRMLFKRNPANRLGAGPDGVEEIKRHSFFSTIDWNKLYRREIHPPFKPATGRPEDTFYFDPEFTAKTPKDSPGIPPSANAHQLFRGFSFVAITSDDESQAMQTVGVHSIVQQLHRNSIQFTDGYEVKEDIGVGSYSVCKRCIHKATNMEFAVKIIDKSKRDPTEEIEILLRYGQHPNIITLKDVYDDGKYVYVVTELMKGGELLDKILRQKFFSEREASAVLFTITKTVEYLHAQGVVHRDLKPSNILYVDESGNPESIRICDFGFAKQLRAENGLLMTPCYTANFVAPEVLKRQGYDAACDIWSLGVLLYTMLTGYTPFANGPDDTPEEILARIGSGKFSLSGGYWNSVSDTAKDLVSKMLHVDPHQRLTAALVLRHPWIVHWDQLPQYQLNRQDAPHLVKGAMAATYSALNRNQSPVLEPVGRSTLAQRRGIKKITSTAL
row,Compound,IC50 [nM]
1,"Cc1cc(NC(=O)c2ccc3cc4n(c3c2)CC2(CCNCC2)CNC4=O)no1 [Example 237, N-(5-methyl-1,2-oxazol-3-yl)-1-oxo-2,3-dihydro-1H-spiro[1,4-diazepino[1,2-a]indole-4,4′-piperidine]-8-carboxamide]",6300
2,"O=C(Nc1cnn(CCc2ccccc2)c1)c1ccc2cc3n(c2c1)CCCNC3=O [Example 113, 1-oxo-N-[1-(2-phenylethyl)-1H-pyrazol-4-yl]-2,3,4,5-tetrahydro-1H-[1,4]diazepino[1,2-a]indole-8-carboxamide]",17
3,"Cc1cc(NC(=O)c2ccc3cc4n(c3c2)[C@@H](C)CCNC4=O)no1 [Example 173, (5S)-5-methyl-N-(5-methyl-1,2-oxazol-3-yl)-1-oxo-2,3,4,5-tetrahydro-1H-[1,4]diazepino[1,2-a]indole-8-carboxamide]",1200
4,"Cc1ccccc1Cn1cc(NC(=O)c2ccc3cc4n(c3c2)CCCNC4=O)cn1 [Example 34, N-[1-(2-methylbenzyl)-1H-pyrazol-4-yl]-1-oxo-2,3,4,5-tetrahydro-1H-[1,4]diazepino[1,2-a]indole-8-carboxamide]",7.9
5,"O=C(Nc1cccc(Cl)c1)c1ccc2cc3n(c2c1)CCCNC3=O [Example 1, N-(3-chlorophenyl)-1-oxo-2,3,4,5-tetrahydro-1H-[1,4]diazepino[1,2-a]indole-8-carboxamide]",270
6,"CN(C)CCCn1cc(NC(=O)c2ccc3cc4n(c3c2)CCCNC4=O)cn1 [Example 36, N-{1-[3-(dimethylamino)propyl]-1H-pyrazol-4-yl}-1-oxo-2,3,4,5-tetrahydro-1H-[1,4]diazepino[1,2-a]indole-8-carboxamide]",84
7,"O=C(Nc1cnn(-c2ccccc2)c1)c1ccc2cc3n(c2c1)CCCNC3=O [Example 192, 1-oxo-N-(1-phenyl-1H-pyrazol-4-yl)-2,3,4,5-tetrahydro-1H-[1,4]diazepino[1,2-a]indole-8-carboxamide]",18
8,"CC(C)(C)c1cc(NC(=O)c2ccc3cc4n(c3c2)CCCNC4=O)sn1 [Example 3, N-(3-tert-butyl-1,2-thiazol-5-yl)-1-oxo-2,3,4,5-tetrahydro-1H-[1,4]diazepino[1,2-a]indole-8-carboxamide]",240
9,"Cc1cc(NC(=O)c2ccc3cc4n(c3c2)CC(C)CNC4=O)no1 (centres unmarked) [Example 182, 4-methyl-N-(5-methyl-1,2-oxazol-3-yl)-1-oxo-2,3,4,5-tetrahydro-1H-[1,4]diazepino[1,2-a]indole-8-carboxamide]",150
10,"CN(C)CCn1c(NC(=O)c2ccc3cc4n(c3c2)CCCNC4=O)nc2ccccc21 [Example 103, N-{1-[2-(dimethylamino)ethyl]-1H-benzimidazol-2-yl}-1-oxo-2,3,4,5-tetrahydro-1H-[1,4]diazepino[1,2-a]indole-8-carboxamide]",23
11,"O=C(Nc1cnn(C2CCOCC2)c1)c1ccc2cc3n(c2c1)CCCNC3=O [Example 27, 1-oxo-N-[1-(tetrahydro-2H-pyran-4-yl)-1H-pyrazol-4-yl]-2,3,4,5-tetrahydro-1H-[1,4]diazepino[1,2-a]indole-8-carboxamide]",46
12,"CC(=O)N1CCC(n2c(NC(=O)c3ccc4cc5n(c4c3)CCCNC5=O)nc3ccccc32)CC1 [Example 78, N-[1-(1-acetylpiperidin-4-yl)-1H-benzimidazol-2-yl]-1-oxo-2,3,4,5-tetrahydro-1H-[1,4]diazepino[1,2-a]indole-8-carboxamide]",58
13,"COc1ccc(NC(=O)c2ccc3cc4n(c3c2)CCCNC4=O)cc1 [Example 149, N-(4-methoxyphenyl)-1-oxo-2,3,4,5-tetrahydro-1H-[1,4]diazepino[1,2-a]indole-8-carboxamide]",110
14,"CC(C)(O)Cn1c(NC(=O)c2ccc3cc4n(c3c2)CCCNC4=O)nc2ccccc21 [Example 85, N-[1-(2-hydroxy-2-methylpropyl)-1H-benzimidazol-2-yl]-1-oxo-2,3,4,5-tetrahydro-1H-[1,4]diazepino[1,2-a]indole-8-carboxamide]",5.4
